Laboratory results: PMC8230565, “Bisavenathramide Analogues as Nrf2 Inductors and Neuroprotectors in In Vitro Models of Oxidative Stress and Hyperphosphorylation” (Antioxidants, 2021)

What was measured:
[1] = Ferric reducing antioxidant power (FRAP) assay; set-up: key to FRAP TEAC: trolox equivalents (TEAC), relative to trolox; conditions: for FRAP nmol Fe2+ at 30 µM: 30 µM compound, n in brackets; for FRAP TEAC: 30 µM, relative to trolox
Protocol: A ferric reducing antioxidant power (FRAP) kit assay purchased from Sigma-Aldrich (Madrid, Spain) was employed for the experiments. The antioxidant solutions, FRAP assay buffer solution, FeCl3 solution, and FRAP probe solution were kept in ice during the preparation of the plate. A calibration standard curve was prepared by using the 2 mM ferrous standard solution provided in the FRAP kit assay. Appropriate aliquots of this solution were taken and diluted up to a 200 μL final volume with FRAP buffer. The final ferrous concentrations measured in the well were: 0, 20, 40, 60, 80, and 100 μM. Each concentration value was prepared and measured by triplicate. Stock solutions of compounds 3, as well as reference compounds trolox and ferulic acid, were freshly prepared in 95% ethanol at […]. Aliquots of 10 μL of compounds 3 and the reference compounds were mixed with 19 μL FeCl3 solution and 19 μL FRAP probe solution, and then completed to a final volume of 200 μL with FRAP assay buffer solution. The final concentration of antioxidants and references was 30 μM. Compounds 3, reference compounds, as well as the corresponding blank solutions (one for each compound to be assayed, avoiding the chromogenic FRAP probe), and positive control were thoroughly mixed in vortex for 1–2 min with the reaction chromogenic media, and then were incubated under darkness at 37 °C in the dry bath, and using the device for support well-plates. Each compound to be assayed and the reference antioxidant compounds were prepared and measured by triplicate. The absorbance values were measured at 594 nm after 5 min of reaction and, to assure complete reaction, the absorbance values after 60 min of incubation at 37 °C in the dry bath were also measured. The absorbance values of the sample antioxidant compounds were corrected by subtracting the corresponding absorbance values of the blanks, and then they were introduced in the calibration curve and the ferrous equivalents were determined. The reference antioxidants employed for this assay were trolox and ferulic acid, which were obtained from Sigma-Aldrich (Madrid, Spain). Ultrapure water was obtained from a Milli-Q Direct 8 system (Millipore, Molsheim, France).
In order to achieve a broader insight into the antioxidant profile of our compounds, we also examined them using a single electron transfer (SET)-based method, namely the ferric reducing antioxidant power (FRAP) assay, which measures the ability of an antioxidant to reduce the ferric ion in the TPTZ (2,4,6-tri(2-pyridyl)-1,3,5-triazine)-Fe(III) complex.

[2] = DPPH radical scavenging assay; conditions: for DPPH Scavenging at 0.1 mM, %: 0.1 mM compound; for DPPH Scavenging at 1 mM, %: 1 mM compound; for IC50: n in brackets
Protocol: The direct antioxidant effects of compounds 3 were investigated by studying their radical-scavenging effect on the 2,2-diphenyl-1-picrylhydrazyl free radical (DPPH^•). Thus, a 100 μL volume of a methanol solution of each compound was added to 200 μL of 100 μM methanolic DPPH^•, and the solution was kept in the dark at 37 °C for 30 min in a 96-well microliter plate. After this incubation, the absorption at 490 nm of each solution was measured with a microplate reader in order to quantitate its decrease. A blank reading was also taken to calculate the amount of remaining DPPH^•. The radical-scavenging activity exerted by compounds 3 was determined by comparison with a 10 μL of MeOH-treated blank group. Ascorbic acid, a well-known antioxidant acting as a radical scavenger, was used as reference. All samples were analyzed in triplicate. Percent inhibition of the DPPH^• radical was calculated using the equation shown below, where AbsCtrl is the absorbance of the blank group and Abss is the absorbance of the samples containing compounds 3. For each compound showing a percentage of inhibition above 60%, the IC50 value was determined using a dose–response curve obtained from measurements corresponding to at least six concentrations. %Scavenger=AbsCtrl−AbsS/AbsCtrl×100
The radical scavenging activity of all compounds was first studied by the DPPH assay, which measures the ability of antioxidant compounds to donate a hydrogen atom to the violet 2,2-diphenyl-1-picrylhydrazyl radical and transform it into a nonradical species. Thus, it is generally considered to belong to the hydrogen atom transfer (HAT) category of methods for measurement of antioxidant activity.

[3] = target: AChE (Electrophorus electricus) (Electrophorus electricus, UniProt O42275); experiment: Acetylcholinesterase inhibition (Ellman's method); type: biochemical; conditions: for inhibition at 10 µM: 10 μM compound, read-out: % Inhibition of EeAChE at 10 μM; for IC50: n in brackets, read-out: IC50 (EeAChE)
Protocol: Ellman’s method was employed to determine the inhibitory capacity of the compounds against AChE (Electrophorus electricus). The compounds were studied at 10 μM concentration, at room temperature, using PBS (0.1 M, pH 8) as solvent. Transparent 48-well microplates (COSTAR 3548) were used and, in each one, a blank was included. The compounds were incubated with the enzyme (0.09 U/mL) and with DTNB (0.35 mM) for 10 min. Afterwards, the enzyme substrate acetylthiocholine (0.35 mM) was added to a final volume of 1 mL. The microplate was incubated at room temperature for 15 min. Then, the absorbance was measured at 420 nm using the microplate reader FluoStar Optima (BMG Labtech, Ortenberg, Baden-Württemberg, Germany). The enzymatic activity was calculated by subtracting the blank absorbance from the sample absorbance and dividing the result by the absorbance of the maximum activity subtracted from blank absorbance, and the result was multiplied by one hundred to give a percentage. The inhibitory activity was calculated by subtracting the enzymatic activity from one hundred. Selected compounds were assayed at 0.3, 1, 3, 10, and 30 μM concentrations to obtain inhibition curves. The results were plotted versus concentration to obtain IC50 values through sigmoidal non-lineal adjustment. All the experiments were performed at least in triplicate.
Bisavenanthramide B-6 and heliotropamide A have been identified as acetylcholinesterase inhibitors. This precedent, coupled with our interest in the potential characterization of our compounds as multitarget-directed ligands, led us to investigate them as inhibitors of this enzyme, an important anti-Alzheimer target.

SH-SY5Y cells = experiment: Neuroprotection against okadaic acid in SH-SY5Y cells (MTT); type: cell-based; conditions: Homo sapiens, SH-SY5Y, 18 h; 1 µM compound; okadaic acid 20 nM; read-out: % Neuroprotection ± SEM at 1 µM (okadaic acid)
Protocol: Neuroprotection studies against tau hyperphosphorylation exerted by okadaic acid (OA) were evaluated using the SH-SY5Y cell line as follows. […] After 18 h, cell viability was addressed by the MTT reduction method. MTT (5 mg/mL, 10 μL/well) was added and incubated for 2 h. Then, the medium was removed and the purple formazan crystals formed by viable cells were dissolved using 100 μL of DMSO. A FluoStar Optima spectrophotometer (BMG Labtech, Ortenberg, Baden-Württemberg, Germany) was used to measure the absorbance at 570 nm.
Okadaic acid is a potent inhibitor of protein phosphatase 2A (PP2A), thereby inducing tau hyperphosphorylation. For this reason, it can be employed as a model of neurodegenerative-disease-connected tau hyperphosphorylation, a well-known feature of Alzheimer’s disease, but present also in other NDDs, collectively known as tauopathies and characterized by the pathological aggregation of hyperphosphorylated tau in neurofibrillary tangles. […] Tau hyperphosphorylation is connected to oxidative stress, which activates p38 and deactivates calcineurin, a phosphatase involved in tau dephosphorylation by increasing RCAN1, its natural repressor [34, 35]. Indeed, hyperphosphorylation and oxidative stress have been proposed to generate a vicious circle that is critical to the advance of neurodegenerative tauopathies.

AChE (Electrophorus electricus), sequence (O42275 24-633): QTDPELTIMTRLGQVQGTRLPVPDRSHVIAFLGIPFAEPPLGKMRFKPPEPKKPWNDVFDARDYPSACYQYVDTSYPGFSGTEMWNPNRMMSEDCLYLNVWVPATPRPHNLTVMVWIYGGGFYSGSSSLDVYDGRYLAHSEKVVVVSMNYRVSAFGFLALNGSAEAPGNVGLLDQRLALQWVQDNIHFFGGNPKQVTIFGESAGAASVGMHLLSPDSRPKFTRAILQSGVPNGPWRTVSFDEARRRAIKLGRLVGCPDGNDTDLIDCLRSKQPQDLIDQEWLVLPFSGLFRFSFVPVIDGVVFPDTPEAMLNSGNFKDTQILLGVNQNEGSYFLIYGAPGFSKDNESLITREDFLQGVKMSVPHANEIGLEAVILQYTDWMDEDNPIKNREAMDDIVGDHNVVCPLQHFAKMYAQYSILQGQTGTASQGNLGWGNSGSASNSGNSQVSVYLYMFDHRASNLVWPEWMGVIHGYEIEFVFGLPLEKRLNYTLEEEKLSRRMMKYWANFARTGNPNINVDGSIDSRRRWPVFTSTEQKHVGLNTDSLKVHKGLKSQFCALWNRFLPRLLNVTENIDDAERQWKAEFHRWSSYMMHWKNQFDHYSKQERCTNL

SMILES: COC(=O)C1=C(C)N(CCc2ccccc2)C(=O)/C1=C\c1ccc(OCc2ccccc2Cl)c(OC)c1 [Compound 3k, Methyl (Z)-4-[4-((2-Chlorobenzyl)oxy)-3-methoxybenzylidene]-2-methyl-5-oxo-1-phenethyl-4,5-dihydro-1H-pyrrole-3-carboxylate]
- FRAP nmol Fe2+ at 30 µM [1]: 1.63 ± 0.01 (3) nmol Fe^2+
- FRAP TEAC [1]: 0.71
- DPPH Scavenging at 0.1 mM, % [2]: 7.3 ±1.4%
- DPPH Scavenging at 1 mM, % [2]: 27.3 ± 1.0%
- inhibition at 10 µM [3]: 40.1%
- IC50 [3]: 22.4 ± 3.2 µM
- % neuroprotection against okadaic acid at 1 µM (SH-SY5Y cells): 57.1 ± 22.3%

SMILES: COC(=O)C1=C(C)N(CCc2ccccc2)C(=O)/C1=C\c1ccc(OCc2ccc(Cl)cc2)c(OC)c1 [Compound 3l, Methyl (Z)-4-[4-((4-Chlorobenzyl)oxy)-3-methoxybenzylidene]-2-methyl-5-oxo-1-phenethyl-4,5-dihydro-1H-pyrrole-3-carboxylate]
- FRAP nmol Fe2+ at 30 µM [1]: 1.62 ± 0.03 (3) nmol Fe^2+
- FRAP TEAC [1]: 0.71
- DPPH Scavenging at 0.1 mM, % [2]: 11.3 ± 2.6%
- DPPH Scavenging at 1 mM, % [2]: 63.5 ± 2.2%
- IC50 [2]: 712.2 ± 5.4 µM
- inhibition at 10 µM [3]: 26.2%
- % neuroprotection against okadaic acid at 1 µM (SH-SY5Y cells): 51.1 ± 18.4%

SMILES: COC(=O)C1=C(C)N(CCc2ccc(OC)c(OC)c2)C(=O)/C1=C\c1ccc(OCc2ccc(Cl)cc2)c(OC)c1 [Compound 3m, Methyl (Z)-4-[4-((4-Chlorobenzyl)oxy)-3-methoxybenzylidene]-1-(3,4-dimethoxyphenethyl)-2-methyl-5-oxo-4,5-dihydro-1H-pyrrole-3-carboxylate]
- FRAP nmol Fe2+ at 30 µM [1]: 1.59 ± 0.05 (3) nmol Fe^2+
- FRAP TEAC [1]: 0.70
- DPPH Scavenging at 0.1 mM, % [2]: 22.8 ± 0.2%
- DPPH Scavenging at 1 mM, % [2]: 85.5 ± 2.7%
- IC50 [2]: 334 ± 22.9 µM
- inhibition at 10 µM [3]: 31.8%
- % neuroprotection against okadaic acid at 1 µM (SH-SY5Y cells): 40.7 ± 9.85%

SMILES: COC(=O)C1=C(C)N(CCc2ccc(OC)c(OC)c2)C(=O)/C1=C\c1ccc(OCc2ccccc2Cl)c(OC)c1 [Compound 3n, Methyl (Z)-4-[4-((2-Chlorobenzyl)oxy)-3-methoxybenzylidene]-1-(3,4-dimethoxyphenethyl)-2-methyl-5-oxo-4,5-dihydro-1H-pyrrole-3-carboxylate]
- FRAP nmol Fe2+ at 30 µM [1]: 1.59 ± 0.02 (3) nmol Fe^2+
- FRAP TEAC [1]: 0.69
- DPPH Scavenging at 0.1 mM, % [2]: 12.7 ± 3.5%
- DPPH Scavenging at 1 mM, % [2]: 73.6 ± 0.7%
- IC50 [2]: 552 ± 17.4 µM
- inhibition at 10 µM [3]: 17.6%
- % neuroprotection against okadaic acid at 1 µM (SH-SY5Y cells): 61.4 ± 15.8%

SMILES: COC(=O)C1=C(C)N(CCc2ccccc2)C(=O)/C1=C\c1c[nH]c2ccccc12 [Compound 3o, Methyl (Z)-4-((1H-Indol-3-yl)methylene)-2-methyl-5-oxo-1-phenethyl-4,5-dihydro-1H-pyrrole-3-carboxylate]
- FRAP nmol Fe2+ at 30 µM [1]: 1.80 ± 0.07 (3) nmol Fe^2+
- FRAP TEAC [1]: 0.79
- DPPH Scavenging at 0.1 mM, % [2]: 12.7 ± 1.9%
- DPPH Scavenging at 1 mM, % [2]: 49.9 ± 3.4%
- inhibition at 10 µM [3]: 39.8%
- IC50 [3]: 12.5 ± 1.4 µM
- % neuroprotection against okadaic acid at 1 µM (SH-SY5Y cells): 46.3 ± 13.6%
